We go through 36 molecules from patent US20100273780A1, “SUBSTITUTED 8-HETEROARYL XANTHINES” (PGXHEALTH, LLC, priority 2003, published 2010).

pKi: −log10 of the molar value. Where only a bound is given, the exact number is not on record here.

The assay deals with T1, rat A2B receptors (rA2B) (Rattus norvegicus, UniProt P29276).
T1 construct: expressed in transfected cells; host or cells: HEK-293 cells, stably transfected (G418 selection); membranes
T1 sequence (P29276 1-332): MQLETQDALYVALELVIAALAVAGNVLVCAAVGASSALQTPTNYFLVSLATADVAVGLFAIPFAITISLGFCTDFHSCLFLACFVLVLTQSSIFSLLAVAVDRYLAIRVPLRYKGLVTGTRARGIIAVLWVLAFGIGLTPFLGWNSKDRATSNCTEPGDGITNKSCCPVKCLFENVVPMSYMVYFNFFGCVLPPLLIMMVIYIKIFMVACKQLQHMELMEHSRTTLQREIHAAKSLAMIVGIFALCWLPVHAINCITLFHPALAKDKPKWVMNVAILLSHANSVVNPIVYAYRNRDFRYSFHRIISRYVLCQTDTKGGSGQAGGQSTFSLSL
Put plainly: Radioligand competition binding (125I-ABOPX) at rat A2B receptors in HEK-293 membranes. As to conditions: displacement of specific [125I]ABOPX binding at rat A2B receptors expressed in HEK-293 cells; read-out: RatA2B Ki. The protocol:
The plasmid was amplified in competent JM109 cells and plasmid DNA isolated using Wizard Megaprep columns (Promega Corporation, Madison, Wis.).
Transfected HEK cells were grown under 5% CO2/[…] humidified atmosphere at a temperature of 37° C. Colonies were selected by growth of cells in 0.6 mg/mL G418. Transfected cells were maintained in DMEM supplemented with Hams F12 nutrient mixture (1/1), 10% newborn calf serum, 2 mM glutamine and containing 50 IU/mL penicillin, […], and 0.2 mg/mL Geneticin (G418, Boehringer Mannheim). Cells were cultured in 10 cm diameter round plates and subcultured when grown confluent (approximately after 72 hours).
At A2B receptors: Confluent monolayers of HEK-A2B cells were washed with PBS followed by ice cold Buffer A (10 mM HEPES, 10 mM EDTA, pH 7.4) with protease inhibitors (10 μg/mL benzamidine, 100 μM phenylmethanesulfonyl fluoride, and 2 μg/mL of each aprotinin, pepstatin and leupeptin). The cells were homogenized in a Polytron (Brinkmann) for 20 s, centrifuged at 30,000×g, and the pellets washed twice with buffer HE (10 mM HEPES, 1 mM EDTA, pH 7.4 with protease inhibitors). The final pellet was resuspended in buffer HE, supplemented with 10% sucrose and frozen in aliquots at −80° C. For binding assays membranes were thawed and diluted 5-10 fold with HE to a final protein concentration of approximately 1 mg/mL. To determine protein concentrations, membranes, and bovine serum albumin standards were dissolved in 0.2% NaOH/0.01% SDS and protein determined using fluorescamine fluorescence. Stowell, C.
After incubation, 20 minutes at room temperature, 50 μL, of 10 mg/mL Na-metabisulfite in water was added to quench the reaction. The reaction mixture was applied to a C18 HPLC column, eluting with a mixture of methanol and 5 mM phosphate, pH 6.0. After 5 min at 35% methanol, the methanol concentration was ramped to 100% over 15 min.
Radioligand binding experiments were performed in triplicate with 20-25 μg membrane protein in a total volume of 0.1 mL HE buffer supplemented with 1 U/mL adenosine deaminase and 5 mM MgCl2. The incubation time was 3 h at 21° C. Nonspecific binding was measured in the presence of 100 μM NECA. […] Membranes were filtered on Whatman GF/C filters using a Brandel cell harvester (Gaithersburg, Md.) and washed 3 times over 15-20 seconds with ice cold buffer (10 mM Tris, 1 mM MgCl2, pH 7.4). Bmax and KD values were calculated by Marquardt's nonlinear least squares interpolation for single a site binding models. Marquardt, D. M., J. Soc. Indust. Appl. […] Ki values for different compounds were derived from IC50 values as described. Linden, J., J. Cycl. Nucl. […] Data from replicate experiments are tabulated as means±SEM.
(In general: Loss of bound radioactivity is the signal in a displacement assay; it reports binding, not function.)

On to “1,3-Diethyl-8-[6-(N-(6-chloronicotinoyl)methylamino)-3-pyridyl]xanthine [Compound 130]”, for which the negative-log Ki (pKi) (as a rule, −log10 of the Ki, conventionally taken in molar units) was over 7.00.

Turning to “1,3-Diethyl-8-[6-[(N-phenylcarbamoyl)methylamino]-3-pyridyl)xanthine [Compound 61]”, the pKi is over 5.30.

As for “1,3-Diethyl-8-[6-[N-(isoxazole-5-carbonyl)methylamino]-3-pyridyl)xanthine [Compound 108]”, the pKi was over 6.30.

Consider “1,3-Diethyl-8-[6-[N-nicotinoylethylamino]-3-pyridyl)xanthine [Compound 62]”, for which the pKi is over 6.30.

“1,3-Dipropyl-8-[6-[N-(2-pyrazinecarbonyl)methylamino]-3-pyridyl)xanthine [Compound 109]”: the pKi is over 6.30.

As for “1,3-Dipropyl-8-[6-[N-(isoxazole-5-carbonyl)methylamino]-3-pyridyl)xanthine [Compound 110]”, the pKi was over 6.30.

“1,3-Dipropyl-8-[6-[N-isonicotinoylmethylamino]-3-pyridyl)xanthine [Compound 49]”: the pKi is over 7.00.

For the molecule “1,3-diallyl-8-[6-(N-(6-chloronicotinoyl)methylamino)-3-pyridyl]xanthine [Compound 120]”, the pKi was over 7.00.

As for “1-Cyclopropyl-3-propyl-8-[6-[N-nicotinoylmethylamino]-3-pyridyl)xanthine [Compound 129]”, the pKi was over 7.00.

For “1-Cyclopropylmethyl-3-ethyl-8-[6-[N-(6-chloronicotinoyl)methylamino]-3-pyridyl)xanthine [Compound 145]”, the pKi is over 7.00.

Turning to `CCCn1c(=O)c2[nH]c(-c3ccc(Cl)nc3)nc2n(CCC)c1=O` [Compound 1, 1,3-Dipropyl-8-(6-chloro-3-pyridyl)xanthine], the negative logarithm of the Ki (pKi) is over 6.30.

On to `CCCn1c(=O)c2[nH]c(-c3ccc(NCC)nc3)nc2n(CCC)c1=O` [Compound 3, 1,3-Dipropyl-8-(6-ethylamino-3-pyridyl)xanthine], for which the pKi is over 6.30.

In the case of `CCCn1c(=O)c2[nH]c(-c3ccc(NCCO)nc3)nc2n(CCC)c1=O` [Compound 4, 1,3-Dipropyl-8-(6-(2-hydroxyethyl)amino-3-pyridyl)xanthine], the pKi is over 6.30.

Take `CCCn1c(=O)c2[nH]c(-c3ccc(N4CCN(C(C)=O)CC4)nc3)nc2n(CCC)c1=O` [Compound 5, 1,3-Dipropyl-8-[6-(4-acetylpiperazinyl)-3-pyridyl]xanthine]: the pKi was over 6.30.

Take `CCCn1c(=O)c2[nH]c(-c3ccc(N4CCCC4)nc3)nc2n(CCC)c1=O` [Compound 8, 1,3-Dipropyl-8-(6-pyrrolidinylpyrid-3-yl)xanthine]: the pKi is over 6.30.

In the case of `CCCn1c(=O)c2[nH]c(-c3ccc(N4CCCN(C)CC4)nc3)nc2n(CCC)c1=O` [Compound 9, 1,3-Dipropyl-8-{6-[4-methyl(perhydro-1,4-diazaepin-1-yl)]-3pyridyl}xanthine], the negative logarithm of the Ki (pKi) was over 7.00.

For `CCCn1c(=O)c2[nH]c(-c3ccc(NC)nc3)nc2n(CCC)c1=O` [Compound 10, 1,3-Dipropyl-8-(6-methylamino-3-pyridyl)xanthine], the negative logarithm of the Ki (pKi) was over 6.30.

Turning to `CCCn1c(=O)c2[nH]c(-c3ccc(NCC(C)O)nc3)nc2n(CCC)c1=O` (stereo not drawn) [Compound 13, 1,3-Dipropyl-8-[6-(2-hydroxypropyl)amino-3-pyridyl]xanthine], the pKi is over 6.30.

Consider `CCCn1c(=O)c2[nH]c(-c3ccc(NCC(OC)OC)nc3)nc2n(CCC)c1=O` [Compound 14, 1,3-Dipropyl-8-[6-(2,2-dimethoxyethyl)amino-3-pyridyl]xanthine], for which the pKi was over 6.30.

In the case of `CCCn1c(=O)c2[nH]c(-c3ccc(NC(C)CO)nc3)nc2n(CCC)c1=O` (stereo not drawn) [Compound 15, 1,3-Dipropyl-8-[6-(1-hydroxy-2-propyl)amino-3-pyridyl]xanthine], the pKi is over 7.00.

With `CCCn1c(=O)c2[nH]c(-c3ccc(N4CCOCC4)nc3)nc2n(CCC)c1=O` [Compound 16, 1,3-Dipropyl-8-(6-morpholino-3-pyridyl)xanthine], the pKi is over 7.00.

As to `CCCn1c(=O)c2[nH]c(-c3ccc(NCCOCCO)nc3)nc2n(CCC)c1=O` [Compound 18, 1,3-Dipropyl-8-[[6-(2-hydroxyethoxy)ethylamino]-3-pyridy]xanthine], the pKi was over 6.30.

Turning to `CCCn1c(=O)c2[nH]c(-c3ccc(N4CCNCC4)nc3)nc2n(CCC)c1=O` [Compound 19, 1,3-Dipropyl-8-(6-piperazino-3-pyridyl)xanthine], the pKi was over 6.30.

In the case of `CCCn1c(=O)c2[nH]c(-c3ccc(NCc4ccc(CN)cc4)nc3)nc2n(CCC)c1=O` [Compound 21, 1,3-Dipropyl-8-[6-(4-aminomethylbenzylamino)-3-pyridyl]xanthine], the pKi was over 6.30.

On to `CCCn1c(=O)c2[nH]c(-c3ccc(NC4CC4)nc3)nc2n(CCC)c1=O` [Compound 23, 1,3-Dipropyl-8-(6-cyclopropylamino-3-pyridyl]xanthine], for which the pKi is over 6.30.

Turning to `CCCn1c(=O)c2[nH]c(-c3ccc(NC4CCCC4)nc3)nc2n(CCC)c1=O` [Compound 39, 1,3-Dipropyl-8-[6-(cyclopentylamino)-3-pyridyl]xanthine], the pKi was over 5.30.

`CCCn1c(=O)c2[nH]c(-c3ccc(Cl)nc3)nc2n(CCc2ccc(OC)cc2)c1=O` [Compound 54, 1-propyl-3-(4-methoxyphenyl)ethyl-8-(6-chloro-3-pyridyl)xanthine]: the pKi was over 5.30.

Consider `CCCn1c(=O)c2[nH]c(-c3ccc(N4CCCNCC4)nc3)nc2n(CCC)c1=O` [Compound 58, 1,3-Dipropyl-8-[6-(hexahydro-1,4-diazaepin-1-yl)-3-pyridyl]xanthine], for which the pKi was over 7.00.

Turning to `CN(C(=O)c1cccnc1)c1ccc(-c2nc3c([nH]2)c(=O)n(CC2CC2)c(=O)n3CC2CC2)cn1` [Compound 69, 1,3-Dicylopropylmethyl-8-[6-[N-nicotinoylmethylamino]-3-pyridyl)xanthine], the negative logarithm of the Ki (pKi) is over 6.30.

On to `CCN(C(=O)c1cccnc1)c1ccc(-c2nc3c([nH]2)c(=O)n(CC2CC2)c(=O)n3CC2CC2)cn1` [Compound 70, 1,3-Dicylopropylmethyl-8-[6-[N-nicotinoylethylamino]-3-pyridyl)xanthine], for which the pKi was over 6.30.

Take `CCn1c(=O)c2[nH]c(-c3ccc(NCc4ccccn4)nc3)nc2n(CC)c1=O` [Compound 73, 1,3-Diethyl-8-[6-(2-pyridylmethylamino)-3-pyridyl]xanthine]: the pKi is over 7.00.

For `CCn1c(=O)c2[nH]c(-c3ccc(NCc4cccnc4)nc3)nc2n(CC)c1=O` [Compound 74, 1,3-Diethyl-8-[6-(3-pyridylmethylamino)-3-pyridyl]xanthine], the pKi is over 7.00.

For `CCn1c(=O)c2[nH]c(-c3ccc(NCc4cccc(OC)c4)nc3)nc2n(CC)c1=O` [Compound 75, 1,3-Diethyl-8-[6-(3-methoxybenzylamino)-3-pyridyl]xanthine], the pKi was over 7.00.

Turning to `CCCn1c(=O)c2[nH]c(-c3ccc(NCCc4ccccn4)nc3)nc2n(CCC)c1=O` [Compound 78, 1,3-Dipropyl-8-[6-[2-(2-pyridyl)-ethylamino]-3-pyridyl]xanthine], the pKi was over 7.00.

For `CCn1c(=O)c2[nH]c(-c3ccc(NCCN4CCCC4)nc3)nc2n(CC)c1=O` [Compound 81, 1,3-Diethyl-8-[6-[2-(1-pyrrolidinyl)-ethylamino]-3-pyridyl]xanthine], the pKi is over 7.00.

For `CCCn1c(=O)c2[nH]c(-c3ccc(NCCNC(C)=O)nc3)nc2n(CCC)c1=O` [Compound 83, 1,3-Dipropyl-8-(6-(2-acetylaminoethyl)amino-3-pyridyl)xanthine], the pKi was over 6.30.
